Target: T1, ClpK (Klebsiella pneumoniae, UniProt E0W6V3)
T1 construct: full-length codon-optimised gene in pColdI (BamH1/SalH1), His-tagged, expressed in E. coli BL21; oligomer not measured
Test: fluorescence emission of mant-nucleotide (excitation […] nm)
Format: binding
Details: 2 uM ClpK, 10 uM mant-ATP; 10 mM sodium phosphate pH 7.4, 20 °C; labelled compound

T1 sequence (E0W6V3 entry or part of it): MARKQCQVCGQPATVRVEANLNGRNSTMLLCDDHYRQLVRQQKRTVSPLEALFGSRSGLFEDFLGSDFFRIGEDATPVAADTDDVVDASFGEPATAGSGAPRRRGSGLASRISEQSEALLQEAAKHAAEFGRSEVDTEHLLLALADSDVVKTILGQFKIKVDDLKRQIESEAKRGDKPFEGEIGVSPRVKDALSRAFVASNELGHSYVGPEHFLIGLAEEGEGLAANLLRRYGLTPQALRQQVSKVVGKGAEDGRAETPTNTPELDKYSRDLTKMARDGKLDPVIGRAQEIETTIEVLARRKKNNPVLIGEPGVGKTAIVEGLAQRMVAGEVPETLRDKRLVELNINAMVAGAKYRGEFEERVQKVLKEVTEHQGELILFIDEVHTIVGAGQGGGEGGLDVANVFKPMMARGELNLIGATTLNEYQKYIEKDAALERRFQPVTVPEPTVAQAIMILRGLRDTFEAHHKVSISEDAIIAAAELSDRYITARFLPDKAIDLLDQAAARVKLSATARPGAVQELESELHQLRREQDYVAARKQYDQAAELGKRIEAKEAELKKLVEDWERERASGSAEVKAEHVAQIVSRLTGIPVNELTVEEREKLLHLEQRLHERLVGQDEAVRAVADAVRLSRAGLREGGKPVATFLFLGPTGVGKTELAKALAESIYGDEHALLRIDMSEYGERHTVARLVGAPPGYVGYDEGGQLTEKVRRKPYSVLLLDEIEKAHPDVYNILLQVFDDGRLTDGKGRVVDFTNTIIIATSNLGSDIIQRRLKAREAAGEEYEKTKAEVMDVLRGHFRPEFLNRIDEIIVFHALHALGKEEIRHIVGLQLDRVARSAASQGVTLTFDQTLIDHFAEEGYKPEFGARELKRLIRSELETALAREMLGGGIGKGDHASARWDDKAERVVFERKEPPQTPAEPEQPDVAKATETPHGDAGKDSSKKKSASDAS

**Q.** How did the “fluorescence emission of mant-nucleotide (excitation 355 nm)” value turn out when `CNc1ccccc1C(=O)O[C@H]1[C@@H](O)[C@H](n2cnc3c(N)ncnc32)O[C@@H]1COP(=O)(O)OP(=O)(O)OP(=O)(O)O` [mant-ATP] was run?
**A.** The spectrum indicates binding of mant-ATP as indicated by an increase in the fluorescence quantum yield

Source: paper PMC8746953, “Caseinolytic Proteins (Clp) in the Genus Klebsiella: Special Focus on ClpK” (Molecules, 2021)
